Test results reported in patent US5179093A, “Quinoline-diones” (Schering Corporation, priority 1991, dated 1993).
≈ marks a conversion by molar mass, not a printed value.

Assays:
[1] = test system: HSV-2, strain MS; assay: Therapeutic guinea pig model of HSV infection (genital lesions); format: in vivo
Protocol: The in vivo assessment of anti-HSV efficacy was determined in the prophylactic guinea pig model of HSV infection described by Stanberry et al (1982) The Journal of Infectious Diseases-vol. 146, No. 3, pages 397-404, which is hereby incorporated by reference. Dosing of guinea pigs was comprised of an initial treatment with test compound given 24 hours prior to virus infection and subsequent administration of the compound every eight hours (T.I.D.) for a total of 10 days. Test compounds were administered subcutaneously in 0.5% buffered methyl cellulose at a dose of 60 mg per kg body weight of the animal. Animals were monitored daily for the development of genital lesions and neurological symptomology, both of which were recorded and compared to the results obtained with parallel groups which received placebo or acyclovir treatment. Efficacy was evaluated for each compound by scoring the ability of the compound to ameliorate genital lesions produced by infection with HSV-2, strain MS, expressed as Activity Coefficients. The Activity Coefficients. were calculated as follows: The ability of a test compound to ameliorate lesions was plotted graphically with the number of days being on one axis, and the number of lesions being on the other axis. The area under the resultant curve was put in the numerator of a fraction with the denominator either being the area under a similar curve where placebo was employed(EXP/PL), or the area under the curve where acyclovir was employed (EXP/ACV). Thus (Exp/PL) is the ratio of test compound to placebo. (Exp/ACV) is the ratio of test compound to acyclovir. […] In the therapeutic guinea pig model, dosing of guinea pigs started 24 hours after they were infected with the virus. Subsequent administration of the test compound was done every eight hours for a total of ten days. Activity coefficients were calculated in the same manner as described for the prophylactic guinea pig model above.

[2] = test system: HSV-2 (strain MS); assay: Transient expression of beta galactosidase in transfected HeLa cells superinfected with HSV-2 (HSV-β-GAL assay); format: cell-based; settings: Human alphaherpesvirus 2, plasmid pON 245^ori-, moi=5 pfu/cell, 24 hours, read-out: ANTI-HSV ACTIVITY HSV-β-GAL ASSAY IC50
Protocol: HeLa and Vero cell cultures were maintained in Eagles Minimal Essential Medium (EMEM) which was supplemented with glutamine, penicillin, streptomycin and 10% fetal calf serum (10% EMEM). Stock cultures of HSV-2 (strain MS available from ATCC VR-540) were grown in and harvested from Vero cells. Viral stocks were titered in Vero cells according to established procedures.
Plasmid pON 245^ori- contains the promoter of the HSV-1 thymidine kinase (tk) gene located immediately 5' of the E. coli lac Z gene. In this arrangement, the tk promoter controls transcription from the bacterial gene in transient expression assays. Additionally, an SV40 polyadenylation signal is present at the 3' end of the lac Z gene to allow for the efficient translation of the mRNA in eucaryotic cells. The expression of beta galactosidase in a transient assay using pON 245^ori- is dependent upon superinfection of the transfected cells with HSV. […] For example see U.S. application Ser. No. 07/435,491 filed Sep. 5, 1989, the disclosure of which is incorporated herein by reference thereto.
HeLa cells were seeded into 96 well microtiter plates and allowed to grow to 80% confluency (approximately 35,000 cells/well). One half microgram of plasmid pON 245^ori- DNA was introduced into the cells of each well by the […] precipitation technique (Grahman and Van der Eb, 1973). Four to six hours later, the cells were rinsed with hank's Balanced Salt Solution (HBSS), overlaid with 10% EMEM and incubated at 37° C. At 24 hrs post-transfection, cells were rinsed, overlaid with 10% EMEM again and re-incubated at 37° C. At 48 hrs post-transfection, cells were rinsed and overlaid with either EMEM containing 2% fetal calf serum (2% EMEM), 2% EMEM containing HSV-2 (strain MS, Multiplicity of Infection [moi]=5 pfu/cell) or 2% EMEM containing HSV-2 and the appropriate concentration of Schering compound to be tested. Twenty-four hours later, the cells were harvested and assayed for beta galactosidase activity as described below.
All determinations of beta galactosidase activity were performed in 96 well microtiter plates. The intracellular level of beta galactosidase activity in each well was determined from cell lysates of the monolayer cultures. Aliquots were assayed by incubation in the presence of beta galactosidase substrate, 4-methylumbelliferyl-β-D-galactoside (MUG, 125 ug/ml, Sigma), for 2 hours. The generation of fluorescent product was quantified on a Microfluor microfluorimeter (Dynatech) after addition of 0.1M glycine, pH 10.3 (Spaete and Mocarski, 1985). The inhibitory activity of a compound was plotted versus the concentration and an IC50 value (the concentration of compound required to reduce beta glactosidase expression by 50%) was obtained for each compound tested.

[3] = Compound toxicity assay: inhibition of HeLa cell translation (^3 H-LEU assay); format: cell-based; settings: human; HeLa cells, overnight (24 hours) treatment, tritiated leucine incorporation; read-out: CYTOTOXICITY ^3 H--LEU ASSAY IC50
Protocol: HeLa cells were treated with inhibitory compound for 24 hours, after which levels of translational activity were assayed.
For assay of translational activity, HeLa cultures were grown to 80% confluency in 96 well microtiter plates, treated with appropriate concentrations of compound in 2% EMEM during an overnight incubation at 37° C., then rinsed with HBSS and overlaid with […] of 2% EMEM containing 8 uCi of tritiated leucine (^3 H-LEU, 141 Ci/mMol, Amersham Corp., Arlington Heights Ill.). After 1 hr incubation at 36.5° C., the cells were rinsed twice with phosphate buffered saline (PBS) and lysed in 400 ul/well of 1×PBS, 0.5% sodium dodecyl sulphate (SDS). After a 10 minute incubation at 36.5° C., the contents of the well were transferred to a well in a Millititer HA microfiltration plate (Millipore Corp., Bedford, MA). The TCA insoluble proteins were precipitated onto the filter disc by a 10 minute fixation with 5% TCA, followed by filtration under vacuum and three 10 minute rinses with 95% ethanol. The filters were dried at room temperature, cut from the milltitier plate and transferred to scintillation vials. TCA precipitable counts were assayed in 5 ml of Scintisol (Isolab, Akron, Ohio). The inhibitory activity of a compound was plotted versus the concentration and an IC50 value (that concentration of the compound required to decrease cellular translational activity by 50%) was derived for each compound.

[4] = test system: HSV-2, strain MS; assay: Prophylactic guinea pig model of HSV infection (genital lesions); format: in vivo; settings: 60 mpk × 3/24 hr, sc
Protocol: The in vivo assessment of anti-HSV efficacy was determined in the prophylactic guinea pig model of HSV infection described by Stanberry et al (1982) The Journal of Infectious Diseases-vol. 146, No. 3, pages 397-404, which is hereby incorporated by reference. Dosing of guinea pigs was comprised of an initial treatment with test compound given 24 hours prior to virus infection and subsequent administration of the compound every eight hours (T.I.D.) for a total of 10 days. Test compounds were administered subcutaneously in 0.5% buffered methyl cellulose at a dose of 60 mg per kg body weight of the animal. Animals were monitored daily for the development of genital lesions and neurological symptomology, both of which were recorded and compared to the results obtained with parallel groups which received placebo or acyclovir treatment. Efficacy was evaluated for each compound by scoring the ability of the compound to ameliorate genital lesions produced by infection with HSV-2, strain MS, expressed as Activity Coefficients. The Activity Coefficients. were calculated as follows: The ability of a test compound to ameliorate lesions was plotted graphically with the number of days being on one axis, and the number of lesions being on the other axis. […]

[5] = test system: herpes virus; settings: added to lidocaine or lidocaine hydrochloride; Haines et al.; cited from earlier work

Structure (SMILES) | IC50 [2] | CC50 at 24 h [3] | also measured
Nc1nc2c(ncn2COCCO)c(=O)[nH]1 [ACV, 9-[(2-hydroxyethoxy)methyl]guanine, reference compound] |  |  | efficacy of acyclovir in the therapeutic study ([1]; therapeutic study with Example 45): not efficaceous
O=C1C(=CNCc2ccccc2)C(=O)N(Cc2ccccc2)c2ccccc21 [EX. 23, (E,Z)1-Benzyl-3-Benzylaminomethylene-Quinolin-2,4(1H)-Dione] | 5 µg/mL (≈ 13.6 µM) | > 100 µg/mL | Activity Coefficient (Exp/ACV) ([4]; lesion score AUC days 1-10, ratio test compound to acyclovir): 4.05 ± 2.21; Activity Coefficient (Exp/PL) ([4]; lesion score AUC days 1-10, ratio test compound to placebo): 0.67 ± 0.03
C=CCNC=C1C(=O)Oc2ccccc2C1=O [EX. 34, E,Z-3-[Allylaminomethylene]-dihydrobenzo-[b]-pyran-2,4-dione] | 8 µg/mL (≈ 34.9 µM) | 46 µg/mL (≈ 201 µM) | 
CCCCCCCN1C(=O)C(=CNN2CCOCC2)C(=O)c2ccccc21 [EX. 39, (E,Z)-1-heptyl-3-[(4-morpholino)aminomethylene]-quinolin-2,4(1H)dione] | 4 µg/mL (≈ 10.8 µM) | 29 µg/mL (≈ 78.1 µM) | 
CCCCCCCN1C(=O)C(=CNC23CC4CC(CC(C4)C2)C3)C(=O)c2ccccc21 [EX. 40, (E,Z)-1-heptyl-3-[1-adamantylaminomethylene]-quinolin-2,4(1H)dione] | 5 µg/mL (≈ 11.9 µM) | 33 µg/mL (≈ 78.5 µM) | 
CCCCCCN1C(=O)C(=CN[C@H]2C(O)O[C@H](CO)[C@@H](O)[C@@H]2O)C(=O)c2ccccc21 (stereo partly shown) [EX. 42, (E,Z)-1-hexyl-3-(D) glucosaminomethylene-quinolin-2,4(1H)dione] | 10 µg/mL (≈ 23 µM) | 25 µg/mL (≈ 57.5 µM) | 
COc1ccc(OCCCOCN2C(=O)C(=CNCc3ccncc3)C(=O)c3ccccc32)c(Cl)c1 [EX. 43, (E,Z) 1-[3(2-chloro-4-methoxyphenoxy)-propyloxymethyl]-3-(4-pyridylmethylamino)methylene-quinolin-2,4(1H)dione] | 10 µg/mL (≈ 19.7 µM) | 30 µg/mL (≈ 59.1 µM) | 
CCNC=C1C(=O)c2ccccc2N(C)C1=O [EX. 44, (E,Z) 1-methyl-3-ethylaminomethylene-quinolin-2,4(1H)dione] | 14 µg/mL (≈ 60.8 µM) | 43 µg/mL (≈ 187 µM) | 
O=C1C(=CNCc2ccccc2)C(=O)N(Cc2ccccc2)c2ccsc21 [EX. 45, (E,Z) 4-benzyl-6-benzylaminomethylene-thieno[3,2-b]pyridine-5,7(4H,6H)-dione] | 4 µg/mL (≈ 10.7 µM) | 40 µg/mL (≈ 107 µM) | Activity Coefficient (Exp/PL) ([1]; 30 mpk × 3/24 hr, sc, therapeutic, lesion score AUC days 1-10, ratio test compound to placebo): 0.71; Activity Coefficient (Exp/ACV) ([1]; 30 mpk × 3/24 hr, sc, therapeutic, lesion score AUC days 1-10, ratio to acyclovir, ACV was not efficaceous in this study): 0.93
O=C1C(=CNCc2ccncc2)C(=O)N(Cc2ccccc2)c2ccsc21 [EX. 46] | 3 µg/mL (≈ 7.99 µM) | 23 µg/mL (≈ 61.3 µM) | 
CC(C)(CO)[C@@H](O)C(=O)NCCCO [dexpanthenol] |  |  | enhancement of antiviral activity [5]: significantly enhances the antiviral activity
CC(C)(CO)[C@@H](O)C(=O)NCCC(=O)O [pantothenic acid] |  |  | enhancement of antiviral activity [5]: significantly enhances the antiviral activity

Further lines, with some results ahead:

IC50 [2] | Structure (SMILES) | CC50 at 24 h [3] | also measured
11 µg/mL (≈ 37.4 µM) | CC(NCc1ccccc1)=C1C(=O)Oc2ncccc2C1=O [EX. 31, 3-[1-Benzylaminoethylidine]-2,4-dioxo-2,3-dihydro-4H-pyrido-[2,3-b]-pyran] | > 100 µg/mL | 
18 µg/mL (≈ 61.4 µM) | CN(C)C=C1C(=O)c2cccnc2N(c2ccccc2)C1=O [EX. 32, 1-Phenyl-3-(dimethylaminomethylene)-3,4-dihydro-2H-[1,8]-naphthyridine-2,4-dione] | > 100 µg/mL | 
7 µg/mL (≈ 23.9 µM) | CCNC=C1C(=O)c2cccnc2N(c2ccccc2)C1=O [EX. 35, 1-Phenyl-E,Z-3-[ethylaminomethylene]-3,4-dihydro-2H-[1,8]-naphthyridine-2,4-dione] | > 50 µg/mL | 
22 µg/mL (≈ 61.9 µM) | O=C1C(=CNCc2ccccc2)C(=O)N(c2ccccc2)c2ncccc21 [EX. 36, 1-Phenyl-E,Z-3-[benzylaminomethylene]-3,4-dihydro-2H-[1,8]-naphthyridine-2,4-dione] | 42 µg/mL (≈ 118 µM) | 
22 µg/mL (≈ 61.7 µM) | Cc1cccc(NC=C2C(=O)c3cccnc3N(c3ccccc3)C2=O)n1 [EX. 37, 1-Phenyl-E,Z-3-[(6-methyl-2-pyridylamino)methylene]-3,4-dihydro-2H-[1,8]-naphthyridine-2,4-dione] | 56 µg/mL (≈ 157 µM) | 
8 µg/mL (≈ 22.3 µM) | O=C1C(=CNCc2cnc[nH]2)C(=O)N(Cc2ccccc2)c2ccccc21 [EX. 41, (E,Z)-1-benzyl-3-[(1H-5-imidazolylmethyl)aminomethylene]-quinolin-2,4(1H)dione] | 34 µg/mL (≈ 94.9 µM) | 
